In patent EP2682119A1, “Aromatic N-heterocycle derivatives for use as medicine” (Université Libre de Bruxelles, priority 2012, dated 2014):
Where a name gives a salt, the structure may show the parent alone. Read-outs that look alike come from different tables or passages of the source.

Key:
[1] = molecular target: T1, recombinant MPO (Homo sapiens, UniProt P05164); test: Myeloperoxidase inhibition (MPO) assay, taurine chloramine production by the MPO/H2O2/Cl- system; format: biochemical; conditions: for inhibition properties against myeloperoxidase enzyme: compared with the corresponding compound wherein the fluor atom is at position 5 on the indole ring
T1 construct: made in house
T1 sequence (P05164 49-745): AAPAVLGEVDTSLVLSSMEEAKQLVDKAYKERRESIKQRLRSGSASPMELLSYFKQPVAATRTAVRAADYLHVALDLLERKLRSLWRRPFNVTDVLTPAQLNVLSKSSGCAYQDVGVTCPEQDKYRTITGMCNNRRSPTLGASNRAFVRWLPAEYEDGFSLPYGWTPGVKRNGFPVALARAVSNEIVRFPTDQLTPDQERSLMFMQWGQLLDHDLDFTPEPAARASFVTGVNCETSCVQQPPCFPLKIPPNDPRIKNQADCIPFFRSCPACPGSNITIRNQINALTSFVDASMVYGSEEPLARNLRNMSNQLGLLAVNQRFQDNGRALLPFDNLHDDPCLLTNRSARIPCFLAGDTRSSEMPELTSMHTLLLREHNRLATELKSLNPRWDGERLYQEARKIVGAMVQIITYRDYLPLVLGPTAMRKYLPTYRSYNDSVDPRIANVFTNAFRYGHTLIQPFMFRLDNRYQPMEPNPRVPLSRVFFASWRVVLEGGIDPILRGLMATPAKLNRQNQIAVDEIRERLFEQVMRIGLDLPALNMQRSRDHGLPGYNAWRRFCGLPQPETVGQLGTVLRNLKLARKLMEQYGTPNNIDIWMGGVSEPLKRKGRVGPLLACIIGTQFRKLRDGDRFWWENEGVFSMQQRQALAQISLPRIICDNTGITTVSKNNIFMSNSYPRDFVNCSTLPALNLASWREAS
Description: Myeloperoxidase inhibition (MPO) assay procedure
The assay was based on the production of taurine chloramine produced by the MPO/H2O2/Cl- system in the presence of a selected inhibitor at defined concentration. The reaction mixture contained the following reagents in a final volume of 200 µL: pH 7.4 phosphate buffer (10 mM PO4^3-/300 mM NaCl), taurine (15 mM), the compound to be tested (up to 20 µM), and the fixed amount of the recombinant MPO (6.6 µL of MPO batch solution diluted 2.5 times, 40 nM). When necessary, the volume was adjusted with water. This mixture was incubated at 37 °C and the reaction initiated with 10.0 µL of H2O2 (100 µM). After 5 min, the reaction was stopped by the addition of 10 µL of catalase (8 U/µL).
(§1) Recombinant MPO was prepared as previously described. Each batch solution is characterized by its protein concentration (mg/mL), its activity (U/mL), and its specific activity (U/mg). The chlorination activity was determined according to Hewson and Hager. […] The different steps were carried out in the dark, and the protein concentration was measured by the Lowry assay for both MPO and LDL.

[2] = molecular target: T2, LDL oxidation carried out by MPO (Homo sapiens, UniProt P05164); test: Inhibition of LDL oxidation by MPO, ELISA with Mab AG9; format: biochemical
T2 construct: made in house
T2 sequence (P05164 49-745): T1 sequence (P05164 49-745)
Description: Low-density lipoproteins oxidation inhibition
Preparation of the Recombinant Enzyme and of LDL
as §1
Inhibition of LDL Oxidation
LDL oxidation was carried out at 37 °C in a final volume of 500 µL. The reaction mixture contained the following reagents at the final concentrations indicated between brackets: pH 7.2, PBS buffer, MPO (1 µg/mL), LDL (1000 µg/mL), 2 µL 1 N HCl (4 mM), one of the drugs at different concentrations, and H2O2 (100 µM). The reaction was stopped after 5 min by cooling the tubes in ice. The assay was performed as described by Moguilevsky et al. in a NUNC maxisorp plate (VWR, Zaventem, Belgium): 200 ng/well of LDL was coated overnight at 4 °C in a sodium bicarbonate pH 9.8 buffer (100 µL) Afterward, the plate was washed with TBS 80 buffer and then saturated during 1 h at 37 °C with the PBS buffer containing 1% BSA (150 µL/well). […] After incubation for 1 h at 37 °C, the plate was washed four times with the TBS 80 buffer and a 3000 times diluted solution of IgG antimouse alkaline phosphatase (Promega, Leiden, The Netherlands) in the same buffer was added (100 µL/well). The wells were washed again four times and a revelation solution (150 µL/well) containing 5 mg of para-nitrophenyl phosphate in 5 mL of diethanolamine buffer was added for 30 min at room temperature. The reaction was stopped with 60 µL/well of 3 N NaOH solution. […] Results were expressed as IC50.

[3] = molecular target: T3, human 5-HT transporter (hSERT) (Homo sapiens, UniProt P31645); test: 5-HT reuptake inhibition, [3H]5-HT uptake in transfected HEK-293 MSR cells; format: cell-based; conditions: serotonin reuptake inhibition
T3 construct: expressed in transfected cells; host or cells: HEK-293 MSR cells (Invitrogen), plasmid pcDNA3.1-hSERT
T3 sequence (P31645 whole entry): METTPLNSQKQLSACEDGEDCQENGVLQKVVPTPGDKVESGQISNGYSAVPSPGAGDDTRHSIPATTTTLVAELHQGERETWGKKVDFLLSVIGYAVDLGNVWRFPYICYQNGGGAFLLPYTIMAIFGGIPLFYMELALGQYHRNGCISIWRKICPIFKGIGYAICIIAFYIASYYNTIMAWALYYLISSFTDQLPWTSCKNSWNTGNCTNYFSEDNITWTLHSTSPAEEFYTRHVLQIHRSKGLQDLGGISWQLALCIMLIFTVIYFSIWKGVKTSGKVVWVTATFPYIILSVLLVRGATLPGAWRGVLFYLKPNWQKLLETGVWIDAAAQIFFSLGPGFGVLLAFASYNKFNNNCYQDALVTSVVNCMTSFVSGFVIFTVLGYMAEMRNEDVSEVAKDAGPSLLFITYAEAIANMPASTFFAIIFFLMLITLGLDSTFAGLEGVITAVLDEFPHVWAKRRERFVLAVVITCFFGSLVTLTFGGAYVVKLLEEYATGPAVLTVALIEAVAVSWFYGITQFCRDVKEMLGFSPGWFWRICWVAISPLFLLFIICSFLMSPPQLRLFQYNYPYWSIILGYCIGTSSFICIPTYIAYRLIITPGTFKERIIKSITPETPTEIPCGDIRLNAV
Description: Assesment of 5-HT reuptake inhibition.
Inhibition assessment of 5-HT reuptake was performed as follows. The mammalian expression plasmid pcDNA3.1 containing human 5-HT transporter (hSERT) cDNA has been described previously. HEK-293 MSR cells (Invitrogen) were cultured as monolayers in Dulbecco's modified Eagle's medium (BioWhitaker) supplemented with 10% fetal calf serum (Invitrogen), 100 units/mL penicillin, 100 µg/mL streptomycin (BioWhitaker) and 6 µg/mL Geneticin (Invitrogen) at 95% humidity, 5% p(CO2) and 37°C. Cells were detached from the culture flasks by Versene (Invitrogen) and trypsin/EDTA (BioWhitaker) treatment for subculturing or seeding into white TC-microtiter plates (Nunc). Transfection and measurement of [^3H]5-HT (PerkinElmer Life Sciences) uptake was performed as described by Larsen et al. (2004) except that HEK-293 MSR cells (Invitrogen) were used instead of COS-1 cells.

[4] = inhibition of myeloperoxidase enzyme, Table 1, compounds of the invention, read-out: IC50
[5] = inhibition of LDL oxidation, Table 2, read-out: IC50
[6] = Table 3, 3-amidoindole analogues, read-out: MPO IC50
[7] = Table 3, 3-amidoindole analogues, oxidation of LDL, read-out: Mox LDL IC50

Row | SMILES | inhibition properties against myeloperoxidase enzyme [1] | IC50 [1, 4] [nM] | IC50 [2, 5] [nM] | Ki [3] [nM] | IC50 [1, 6] [nM] | IC50 [2, 7] [nM]
1 | NCCc1c[nH]c2c(F)cccc12.O=C(O)C(=O)O [Compound 26, 3-(2-Aminoethyl)-7-fluoro-1H-indole oxalate] | enhanced inhibition properties |  |  |  |  | 
2 | NCCCc1c[nH]c2c(F)cccc12.O=C(O)C(=O)O [Compound 27, 3-(3-Aminopropyl)-7-fluoro-1H-indole oxalate] | enhanced inhibition properties |  |  |  |  | 
3 | NCCCCc1c[nH]c2c(F)cccc12 [Compound 30, 3-(4-Aminobutyl)-7-fluoro-1H-indole oxalate] |  | 6 | 21 |  |  | 
4 | NCCSCCc1c[nH]c2ccc(F)cc12 [Compound 32, 3-(2-(2-Aminoethylthio)ethyl)-5-fluoro-1H-indole oxalate] |  | 4 | 8 |  |  | 
5 | NCCSCCCc1c[nH]c2ccc(F)cc12 [Compound 33, 3-(3-(2-Aminoethylthio)propyl)-5-fluoro-1H-indole oxalate] |  |  | 21 |  |  | 
6 | N#CSCCCc1c[nH]c2ccc(F)cc12 [Compound 34, 5-Fluoro-3-(3-thiocyanatopropyl) 1H-indole] |  | 5 | 23 | 212 |  | 
7 | CCN(CCc1c[nH]c2ccc(F)cc12)S(C)(=O)=O [Compound 35, 5-Fluoro-3-(2-(N-ethylmethanesulfonamido)ethyl)-1H-indole] |  | 14 | 27 | 174 |  | 
8 | CCN(CCCc1c[nH]c2ccc(F)cc12)S(C)(=O)=O [Compound 36, 5-Fluoro-3-(3-(N-ethylmethanesulfonamido)propyl)-1H-indole] |  |  | 27 |  |  | 
9 | NCCSCCc1c[nH]c2c(F)cccc12 [Compound 43, 3-(2-(2-Aminoethylthio)ethyl)-7-fluoro-1H-indole oxalate] |  | 3 | 6 | 25 |  | 
10 | ONCCCc1c[nH]c2ccc(F)cc12 [Compound 45, 3-(3-N-Hydroxylaminopropyl)-5-fluoro-1H-indole] |  | 11 | 21 | 20 |  | 
11 | NC(=O)CCCc1c[nH]c2c(F)cccc12 [Compound 54, 3-(4-(butylamido))-7-fluoro-1H-indole] |  |  | 24 |  | 26 | 24
12 | NC(=O)CCCc1c[nH]c2ccc(F)cc12 [Compound 56, 3-(4-(Butylamido))-5-fluoro-1H-indole] |  | 18 | 18 | 631 | 18 | 18
13 | NC(=O)CCCCc1c[nH]c2c(F)cccc12 [Compound 57, 3-(5-(pentylamido)) -7-fluoro-1H-indole] |  |  |  |  | 39 | 43
14 | NC(=O)CCCCc1c[nH]c2ccc(F)cc12 [Compound 58, 3-(5-(pentylamido)) -5-fluoro-1H-indole] |  |  |  |  | 35 | 44
15 | CNC(=O)CCCc1c[nH]c2ccc(F)cc12 [Compound 59, 3-(4-(N-methyl, butylamido))-5-fluoro-1H-indole] |  |  |  |  | 40 | 95
